From patent publication US8906899B2, “Azetidine derivatives as sphingosine 1-phosphate (S1P) receptor modulators” (Allergan, Inc., priority 2010, dated 2014)
pEC50: −log10 of the molar value.

Target: T1, human S1P1 receptor (Homo sapiens, UniProt P21453)
T1 construct: expressed in transfected cells; membranes used
Assay: GTP γ35S binding assay for S1P1 activity
Format: biochemical
Settings: activity potency from GTP γ35S binding; membranes, test compounds 0.08 to 5,000 nM, 30 min at 25° C.
Protocol: Compounds were synthesized and tested for S1P1 activity using the GTP γ^35S binding assay. These compounds may be assessed for their ability to activate or block activation of the human S1P1 receptor in cells stably expressing the S1P1 receptor.
GTP γ^35S binding was measured in the medium containing (mM) HEPES 25, pH 7.4, MgCl2 10, NaCl 100, dithitothreitol 0.5, digitonin 0.003%, 0.2 nM GTP γ^35S, and 5 μg membrane protein in a volume of 150 μl. Test compounds were included in the concentration range from 0.08 to 5,000 nM unless indicated otherwise. Membranes were incubated with 100 μM 5′-adenylylimmidodiphosphate for 30 min, and subsequently with 10 μM GDP for 10 min on ice. Drug solutions and membrane were mixed, and then reactions were initiated by adding GTP γ^35S and continued for 30 min at 25° C. Reaction mixtures were filtered over Whatman GF/B filters under vacuum, and washed three times with 3 mL of ice-cold buffer (HEPES 25, pH7.4, MgCl2 10 and NaCl-100). Filters were dried and mixed with scintillant, and counted for ^35S activity using a β-counter. Agonist-induced GTP γ^35S binding was obtained by subtracting that in the absence of agonist. Binding data were analyzed using a non-linear regression method. In case of antagonist assay, the reaction mixture contained 10 nM S1P in the presence of test antagonist at concentrations ranging from 0.08 to 5000 nM.

T1 sequence (P21453 whole entry): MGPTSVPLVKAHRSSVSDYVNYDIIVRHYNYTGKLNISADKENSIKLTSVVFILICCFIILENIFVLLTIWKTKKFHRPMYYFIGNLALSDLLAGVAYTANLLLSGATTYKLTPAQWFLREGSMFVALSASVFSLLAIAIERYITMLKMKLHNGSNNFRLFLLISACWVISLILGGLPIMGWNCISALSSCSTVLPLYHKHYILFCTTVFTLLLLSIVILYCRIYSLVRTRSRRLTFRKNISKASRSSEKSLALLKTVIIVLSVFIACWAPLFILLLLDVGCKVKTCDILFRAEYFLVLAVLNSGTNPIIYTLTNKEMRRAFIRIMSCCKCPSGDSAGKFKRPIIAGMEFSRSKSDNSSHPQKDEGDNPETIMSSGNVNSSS

Structure (SMILES) | pEC50
CCCc1ccc(OC(c2cccc(Cl)c2)c2nc(-c3ccc(CN4CC(C(=O)O)C4)cc3)no2)cc1 (stereo not drawn) [Compound 3, 1-(4-{5-[(3-chlorophenyl)(4-propylphenoxy)methyl]-1,2,4-oxadiazol-3-yl}benzyl)azetidine-3-carboxylic acid] | 5.96
Cc1ccc(OC(c2nc(-c3ccc(CN4CC(C(=O)O)C4)cc3)no2)c2ccccc2Cl)cc1C (stereo not drawn) [Compound 4, 1-(4-{5-[(2-chlorophenyl)(3,4-dimethylphenoxy)methyl]-1,2,4-oxadiazol-3-yl}benzyl)azetidine-3-carboxylic acid] | 6.04
CCc1ccc(OC(c2cccc(Cl)c2)c2nc(-c3ccc(CN4CC(C(=O)O)C4)cc3)no2)cc1 (stereo not drawn) [Compound 1, 1-(4-{5-[(3-chlorophenyl)(4-ethylphenoxy)methyl]-1,2,4-oxadiazol-3-yl}benzyl)azetidine-3-carboxylic acid] | 5.97

Compounds with a higher pEC50, results first:

pEC50 | Structure (SMILES)
6.51 | Cc1ccc(NC(c2cccc(Cl)c2)c2nc(-c3ccc(CN4CC(C(=O)O)C4)cc3)no2)cc1C (stereo not drawn) [Compound 6, 1-[4-(5-{(3-chlorophenyl)[(3,4-dimethylphenyl)amino]methyl}-1,2,4-oxadiazol-3-yl)benzyl]azetidine-3-carboxylic acid]
6.22 | Cc1ccc(OC(c2cccc(Cl)c2)c2nc(-c3ccc(CN4CC(C(=O)O)C4)cc3)no2)cc1C (stereo not drawn) [Compound 2, 1-(4-{5-[(3-chlorophenyl)(3,4-dimethylphenoxy)methyl]-1,2,4-oxadiazol-3-yl}benzyl)azetidine-3-carboxylic acid]
6.47 | O=C(NCc1ccc2c(c1)OCO2)c1cc(-c2ccccc2)c(N2CCOCC2)s1 [N-(1,3-benzodioxol-5-ylmethyl)-5-morpholin-4-yl-4-phenylthiophene-2-carboxamide]
